According to ChEMBL document CHEMBL1151675, “Novel marine di-Z-carotenoids: cucumariaxanthins A, B, and C from the sea cucumber Cucumaria japonica” (J Nat Prod, 1996):

Columns and labels:
Type in all cases: cell-based
Settings in all cases: read-out: Activity
[1] = Cytotoxicity against human Raji cells assessed as cell viability at 10 molar ratio
[2] = Cytotoxicity against human Raji cells assessed as cell viability at 100 molar ratio
[3] = Cytotoxicity against human Raji cells assessed as cell viability at 500 molar ratio
[4] = Cytotoxicity against human Raji cells assessed as cell viability at 1000 molar ratio

Q: For CC(=C/C=C/C(C)=C/C=C/C=C(C)/C=C/C=C(C)\C=C\[C@H]1[C@H](C)C(=O)CCC1(C)C)/C=C/[C@H]1[C@H](C)[C@@H](O)CCC1(C)C, which viability at 10 molar ratio [1] is on record?
A: Its viability at 10 molar ratio is > 80%.

Q: And the viability at 100 molar ratio [2]?
A: The viability at 100 molar ratio was > 80%.

Q: What about the viability at 500 molar ratio [3] of the same compound?
A: Its viability at 500 molar ratio is > 80%.

Q: What about the viability at 1000 molar ratio [4] of the same compound?
A: Its viability at 1000 molar ratio is 70%.

Q: What does the source list for CC(=C/C=C/C(C)=C/C=C/C=C(C)/C=C/C=C(C)\C=C\[C@H]1[C@H](C)[C@@H](O)CCC1(C)C)/C=C/[C@H]1[C@H](C)[C@@H](O)CCC1(C)C?
A: viability at 10 molar ratio [1]: > 80%; viability at 100 molar ratio [2]: > 80%; viability at 500 molar ratio [3]: 70%; viability at 1000 molar ratio [4]: 70%

Q: For CC1=C(/C=C/C(C)=C/C=C/C(C)=C/C=C/C=C(C)/C=C/C=C(C)/C=C/C2=C(C)CCCC2(C)C)C(C)(C)CCC1 [BETA CAROTENE], which viability at 10 molar ratio [1] is on record?
A: The viability at 10 molar ratio was > 80%.

Q: And the viability at 100 molar ratio [2]?
A: Its viability at 100 molar ratio is > 80%.

Q: And the viability at 500 molar ratio [3]?
A: The viability at 500 molar ratio was > 80%.

Q: And the viability at 1000 molar ratio [4]?
A: Its viability at 1000 molar ratio is 70%.

Q: What does the source list for CC(=C/C=C/C(C)=C/C=C/C=C(C)/C=C/C=C(C)\C=C\[C@H]1[C@H](C)C(=O)CCC1(C)C)/C=C/[C@H]1[C@H](C)C(=O)CCC1(C)C [CUCUMARIAXANTHIN A]?
A: viability at 10 molar ratio [1]: > 80%; viability at 100 molar ratio [2]: > 80%; viability at 500 molar ratio [3]: > 80%; viability at 1000 molar ratio [4]: 70%
